In patent publication US8431564B2 (Merck Sharp & Dohme B.V., priority 2009, dated 2013):

These molecules were tested against T1, human FSH receptor (Homo sapiens, UniProt P23945) (assay: Agonistic activity at the human FSH receptor expressed in CHO cells (CRE-luciferase reporter)). Details: CHO cells stably transfected with human FSH receptor and CRE/luciferase reporter; 4 hours incubation; pEC50 is -log EC50.
T1 construct: expressed in transfected cells; host or cells: CHO (Chinese Hamster Ovary) cells, stably transfected, cotransfected with CRE-luciferase reporter
T1 sequence (P23945 18-695): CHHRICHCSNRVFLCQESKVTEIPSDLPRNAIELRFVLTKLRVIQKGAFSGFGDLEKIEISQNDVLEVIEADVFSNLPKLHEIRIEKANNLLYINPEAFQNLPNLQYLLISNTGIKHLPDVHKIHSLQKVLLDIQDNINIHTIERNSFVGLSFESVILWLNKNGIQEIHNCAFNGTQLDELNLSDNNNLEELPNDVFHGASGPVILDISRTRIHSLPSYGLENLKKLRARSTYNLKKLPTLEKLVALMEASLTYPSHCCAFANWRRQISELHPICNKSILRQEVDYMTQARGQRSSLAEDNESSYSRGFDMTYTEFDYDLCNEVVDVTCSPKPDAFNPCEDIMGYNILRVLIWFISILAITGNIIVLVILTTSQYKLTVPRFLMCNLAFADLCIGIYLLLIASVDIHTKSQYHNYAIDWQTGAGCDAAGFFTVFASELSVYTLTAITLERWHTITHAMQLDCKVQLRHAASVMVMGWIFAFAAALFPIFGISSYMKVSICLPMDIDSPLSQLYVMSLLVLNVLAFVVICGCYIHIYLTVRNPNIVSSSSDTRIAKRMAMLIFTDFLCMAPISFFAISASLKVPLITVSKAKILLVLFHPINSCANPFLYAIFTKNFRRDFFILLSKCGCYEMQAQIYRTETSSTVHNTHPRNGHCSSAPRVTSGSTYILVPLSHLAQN
Type: cell-based
Source text: The term EC50 means the concentration of the test compound that elicits half-maximal (50%) stimulation compared to the compound's maximally attainable effect. pEC50 is the negative log of EC50. The values can be determined e.g. in a cell line transfected with a FSH receptor gene and cotransfected with a cAMP responsive element/promoter directing the expression of a reporter gene. For the determination a software program such as MathIQ (version 2.0, ID Business Solutions Limited) can be used.
Agonistic activity of the compounds at the human FSH receptor was determined in Chinese Hamster Ovary (CHO) cells stably transfected with the human FSH receptor and cotransfected with a cAMP responsive element (CRE)/promotor directing the expression of a firefly luciferase reporter gene. Binding of the compounds to the Gs protein-coupled FSH receptor will result in an increase of cAMP, which in turn will induce an increased transactivation of the luciferase reporter. Cells (7,500 cells/well of a 384 well plate) were incubated in Dulbecco' minimal essential F12 modified medium (Invitrogen), supplemented with 1 μg/ml bovine insulin, 5 μg/ml human apo-transferrin, 80 U/ml penicillin G and 80 μg/ml streptomycin with the test compounds (concentration between 0.0316 nM and 10.0 μM) in duplicate in a humidified atmosphere (95%) at 5-7% CO2 and 37° C. The final concentration of DMSO was 1%. After 4 hours of incubation, plates were allowed to adjust to room temperature for 1 hour. Then, Luclite (PerkinElmer) solution was added to the wells and cells were allowed to lyse for at least 1 hour at room temperature. Subsequently, luciferase activity was measured in a luminescence counter. The signal is expressed as counts per second (cps). The EC50 (concentration of the test compound that elicits half-maximal (50%) luciferase stimulation compared to the compound's maximally attainable effect) and efficacy values (maximal effect of the test compound as percentage of the maximal effect of recombinant human FSH) of the compounds were determined using the software program MathIQ (version 2.0, ID Business Solutions Limited). pEC50 data (pEC50 is −log EC50) are indicated at the synthesis examples.

| hFSHRago (CHO luc) pEC50 | SMILES |
| --- | --- |
| 7.19 | COc1cc2c(cc1-c1ccn(C)n1)-c1c(-c3cccs3)c3c(n1CC2)C(=O)N(C(C)(C)C)CCC3 [Compound 4h] |
| 7.86 | CC(C)(C)N1CCCc2c(-c3cccs3)c3n(c2C1=O)CCc1ccc(-c2cnccn2)cc1-3 [Compound 4i] |
| 8.51 | COc1cc2c(cc1-c1cccnc1)-c1c(-c3cncs3)c3c(n1CC2)C(=O)N(C(C)(C)C)CCCC3 [Compound 11j, 9-tert-butyl-3-methoxy-2-pyridin-3-yl-14-(1,3-thiazol-5-yl)-5,6,10,11,12,13-hexahydroazocino[4′,3′:4,5]pyrrolo[2,1-a]isoquinolin-8(9H)-one] |

Same assay, conditions: CHO cells stably transfected with human FSH receptor and CRE/luciferase reporter; 4 hours incubation; pEC50 is -log EC50; read-out: hFSHRago (CHO luc) pEC50 (converted)

| EC50 | SMILES |
| --- | --- |
| 100 nM | COc1cc2c(cc1[N+](=O)[O-])-c1c(-c3cccs3)c3c(n1CC2)C(=O)N(C(C)(C)C)CC3 [Compound 1i, 9-tert-butyl-3-methoxy-2-nitro-12-(2-thienyl)-5,6,10,11-tetrahydropyrido[4′,3′:4,5]pyrrolo[2,1-a]isoquinolin-8(9H)-one] |
| 34.7 nM | COc1cc2c(cc1[N+](=O)[O-])-c1c(-c3cccs3)c3c(n1CC2)C(=O)N(C(C)(C)C)CCC3 [Compound 2h, 9-tert-butyl-2-nitro-3-methoxy-13-(2-thienyl)-5,6,9,10,11,12-hexahydro-8H-azepino[4′,3′:4,5]pyrrolo[2,1-a]isoquinolin-8-one] |
| 36.3 nM | CCn1nnc(-c2cc3c(cc2OC)CCn2c4c(c(-c5cccs5)c2-3)CCCN(C(C)(C)C)C4=O)n1 [Compound 3e, 9-tert-butyl-2-(2-ethyl-2H-tetrazol-5-yl)-3-methoxy-13-(2-thienyl)-5,6,9,10,11,12-hexahydro-8H-azepino[4′,3′:4,5]pyrrolo[2,1-a]isoquinolin-8-one] |
| 126 nM | COc1cc2c(cc1NC(=O)C(C)C)-c1c(-c3cccs3)c3c(n1CC2)C(=O)N(C(C)(C)C)CCC3 [Compound 3f, 9-tert-butyl-2-isobutyramido-3-methoxy-13-(2-thienyl)-5,6,9,10,11,12-hexahydro-8H-azepino[4′,3′:4,5]pyrrolo[2,1-a]isoquinolin-8-one] |
| 11.5 nM | COc1cc2c(cc1-c1ncco1)-c1c(-c3cccs3)c3c(n1CC2)C(=O)N(C(C)(C)C)CCC3 [Compound 4f, 9-tert-butyl-2-(oxazol-2-yl)-3-methoxy-13-(2-thienyl)-5,6,9,10,11,12-hexahydro-8H-azepino[4′,3′:4,5]pyrrolo[2,1-a]isoquinolin-8-one] |
| 4.17 nM | COc1cc2c(cc1-c1cccnc1)-c1c(-c3cccs3)c3c(n1CC2)C(=O)N(C(C)(C)C)CCC3 [Compound 4g, 9-tert-butyl-2-(pyridin-3-yl)-3-methoxy-13-(2-thienyl)-5,6,9,10,11,12-hexahydro-8H-azepino[4′,3′:4,5]pyrrolo[2,1-a]isoquinolin-8-one] |
| 2.82 nM | COc1cc2c(cc1-c1cccnc1)-c1c(-c3cccs3)c3c(n1CC2)C(=O)N(C(C)(C)C)CCCOC3 [Compound 7l, 9-tert-butyl-3-methoxy-2-pyridin-3-yl-15-(2-thienyl)-5,6,9,10,11,12-hexahydro[1,5]oxazonino[8′,7′:4,5]pyrrolo[2,1-a]isoquinolin-8(14H)-one] |
| 17.8 nM | COc1cc2c(cc1-c1cnccn1)-c1c(-c3cccs3)c3c(n1CC2)C(=O)N(C(C)(C)C)CCCOC3 [Compound 7m, 9-tert-butyl-3-methoxy-2-pyrazin-2-yl-15-(2-thienyl)-5,6,9,10,11,12-hexahydro[1,5]oxazonino[8′,7′:4,5]pyrrolo[2,1-a]isoquinolin-8(14H)-one] |
| 14.1 nM | COc1cc2c(cc1-c1cccnc1)-c1c(-c3cncs3)c3c(n1CC2)C(=O)N(C(C)(C)C)CCCOC3 [Compound 8f, 9-tert-butyl-3-methoxy-2-pyridin-3-yl-15-(1,3-thiazol-5-yl)-5,6,9,10,11,12-hexahydro[1,5]oxazonino[8′,7′:4,5]pyrrolo[2,1-a]isoquinolin-8(14H)-one] |
| 120 nM | COc1cc2c(cc1-c1cnccn1)-c1c(-c3cncs3)c3c(n1CC2)C(=O)N(C(C)(C)C)CCCOC3 [Compound 8g, 9-tert-butyl-3-methoxy-2-pyrazin-2-yl-15-(1,3-thiazol-5-yl)-5,6,9,10,11,12-hexahydro[1,5]oxazonino[8′,7′:4,5]pyrrolo[2,1-a]isoquinolin-8(14H)-one] |
| 5.25 nM | COc1cc2c(cc1-c1cccnc1)-c1c(-c3cccs3)c3c(n1CC2)C(=O)N(C(C)C)CCN(C(C)=O)C3 [Compound 10p, 12-acetyl-9-isopropyl-3-methoxy-2-pyridin-3-yl-14-(2-thienyl)-5,6,10,11,12,13-hexahydro[1,4]diazocino[6′,7′:4,5]pyrrolo[2,1-a]isoquinolin-8(9H)-one] |
| 257 nM | COc1cc2c(cc1-c1c(C)nn(C)c1C)-c1c(-c3cccs3)c3c(n1CC2)C(=O)N(C(C)C)CCNC3 [Compound 10q, 9-isopropyl-3-methoxy-2-(1,3,5-trimethyl-1H-pyrazol-4-yl)-14-(2-thienyl)-5,6,10,11,12,13-hexahydro[1,4]diazocino[6′,7′:4,5]pyrrolo[2,1-a]isoquinolin-8(9H)-one] |
| 162 nM | COc1cc2c(cc1-c1c(C)nn(C)c1C)-c1c(-c3cccs3)c3c(n1CC2)C(=O)N(C(C)C)CCN(C(C)=O)C3 [Compound 10r, 12-acetyl-9-isopropyl-3-methoxy-14-(2-thienyl)-2-(1,3,5-trimethyl-1H-pyrazol-4-yl)-5,6,10,11,12,13-hexahydro[1,4]diazocino[6′,7′:4,5]pyrrolo[2,1-a]isoquinolin-8(9H)-one] |
| 5010 nM | COc1cc2c(cc1-c1c(C)nn(C)c1C)-c1c(-c3cccs3)c3c(n1CC2)C(=O)N(C(C)C)CCN(C(=O)C(C)C)C3 [Compound 10s, 12-isobutyryl-9-isopropyl-3-methoxy-14-(2-thienyl)-2-(1,3,5-trimethyl-1H-pyrazol-4-yl)-5,6,10,11,12,13-hexahydro[1,4]diazocino[6′,7′:4,5]pyrrolo[2,1-a]isoquinolin-8(9H)-one] |
| 977 nM | COc1cc2c(cc1-c1c(C)nn(C)c1C)-c1c(-c3cccs3)c3c(n1CC2)C(=O)N(C(C)C)CCN(C(=O)CCC(F)(F)F)C3 [Compound 10t, 9-isopropyl-3-methoxy-14-(2-thienyl)-12-(4,4,4-trifluorobutanoyl)-2-(1,3,5-trimethyl-1H-pyrazol-4-yl)-5,6,10,11,12,13-hexahydro[1,4]diazocino[6′,7′:4,5]pyrrolo[2,1-a]isoquinolin-8(9H)-one] |
| 759 nM | COc1cc2c(cc1-c1cccnc1)-c1c(-c3cccs3)c3c(n1CC2)C(=O)N(C(C)C)CCN(C(=O)C(C)C)C3 [Compound 10w, 9-isopropyl-3-methoxy-12-isobutyryl-14-(2-thienyl)-2-pyridin-3-yl-5,6,10,11,12,13-hexahydro[1,4]diazocino[6′,7′:4,5]pyrrolo[2,1-a]isoquinolin-8(9H)-one] |
| 1260 nM | COc1cc2c(cc1-c1ncco1)-c1c(-c3cccs3)c3c(n1CC2)C(=O)N(C(C)C)CCN(C(=O)C(C)C)C3 [Compound 10x, 9-isopropyl-3-methoxy-12-isobutyryl-14-(2-thienyl)-2-oxazol-2-yl-5,6,10,11,12,13-hexahydro[1,4]diazocino[6′,7′:4,5]pyrrolo[2,1-a]isoquinolin-8(9H)-one] |

| SMILES | EC50 |
| --- | --- |
| COc1cc2c(cc1OC(C)C)-c1c(-c3cccs3)c3c(n1CC2)C(=O)N(C(C)(C)C)CCC3 [Compound 6e] | 11 nM |
| COc1cc2c(cc1OC(C)C)-c1c(-c3cccs3)c3c(n1CC2)C(=O)N(C(C)C)CCC3 [Compound 6f] | 50.1 nM |
